Measurements: US10039836B2, “Polyamine-dihydroxybenzoic acid conjugate hydrogels as iron chelators” (THE UNIVERSITY OF KANSAS, priority 2010, dated 2018)

Assays:
HUVEC cells = test: MTS cytotoxicity assay (CellTiter 96); type: cell-based; conditions: ~24 hours incubation
Method: (§1) High throughput cell viability assays were completed using standard procedures. Cytotoxicity of polymers was determined by the CellTiter 96® Aqueous Cell Proliferation Assay (Promega). A549 and HUVEC cells were cultured and incubated with polymers for ˜24 hours. Next, the media was removed and replaced with a mixture of 100 μL fresh culture media and 20 μL MTS reagent solution and cells were incubated for 3 hours at 37° C. in a 5% CO2 incubator. The absorbance of each well was then measured at 490 nm using a microtiter plate reader (SpectraMax, M25, Molecular Devices Corp.) to determine relative cell viability.

A549 cells = test: MTS cytotoxicity assay (CellTiter 96); type: cell-based; conditions: ~24 hours incubation
Method: as §1

[1] = cited from earlier work

CC(=O)N(O)CCCCCNC(=O)CCC(=O)N(O)CCCCCNC(=O)CCC(=O)N(O)CCCCCN [DFO, desferoxamine]
toxic effect on HUVEC cells (HUVEC cells): considerably toxic even at concentration as low as 10 μg/mL | toxic effect on A549 cells (A549 cells): no toxic effect

O=C(N[C@H]1COC(=O)[C@@H](NC(=O)c2cccc(O)c2O)COC(=O)[C@@H](NC(=O)c2cccc(O)c2O)COC1=O)c1cccc(O)c1O [Enterobactin]
relative iron binding constant ([1]; Fe(III)): 35.5 | Log K ([1]; iron): 52
